# Assay results as given in paper PMC7076788, “Interactions of Destruxin A with Silkworms’ Arginine tRNA Synthetase and Lamin-C Proteins” (Toxins, 2020).
# Numbering of substitutions follows the chain as printed. Where a SMILES comes first, the peptide text is derived from it. [ ]: non-standard residue; d: D form. dLac(3-vinyl) = C=CC[C@@H](O)C(=O)O; NMeV = CN[C@H](C(=O)O)C(C)C; NMeA = CN[C@@H](C)C(=O)O; βAla = NCCC(=O)O
# Legend:
# Assay in all cases: bio-layer interferometry, immobilised protein
# Format in all cases: binding
# [1] = target: T1, BmArgRS (Bombyx mori, UniProt A0A8R1WK71, V468A)
# T1 construct: gene 101737924; apparently full length (catalytic core 216-481)
# T1 sequence (A0A8R1WK71 1-683 V468A): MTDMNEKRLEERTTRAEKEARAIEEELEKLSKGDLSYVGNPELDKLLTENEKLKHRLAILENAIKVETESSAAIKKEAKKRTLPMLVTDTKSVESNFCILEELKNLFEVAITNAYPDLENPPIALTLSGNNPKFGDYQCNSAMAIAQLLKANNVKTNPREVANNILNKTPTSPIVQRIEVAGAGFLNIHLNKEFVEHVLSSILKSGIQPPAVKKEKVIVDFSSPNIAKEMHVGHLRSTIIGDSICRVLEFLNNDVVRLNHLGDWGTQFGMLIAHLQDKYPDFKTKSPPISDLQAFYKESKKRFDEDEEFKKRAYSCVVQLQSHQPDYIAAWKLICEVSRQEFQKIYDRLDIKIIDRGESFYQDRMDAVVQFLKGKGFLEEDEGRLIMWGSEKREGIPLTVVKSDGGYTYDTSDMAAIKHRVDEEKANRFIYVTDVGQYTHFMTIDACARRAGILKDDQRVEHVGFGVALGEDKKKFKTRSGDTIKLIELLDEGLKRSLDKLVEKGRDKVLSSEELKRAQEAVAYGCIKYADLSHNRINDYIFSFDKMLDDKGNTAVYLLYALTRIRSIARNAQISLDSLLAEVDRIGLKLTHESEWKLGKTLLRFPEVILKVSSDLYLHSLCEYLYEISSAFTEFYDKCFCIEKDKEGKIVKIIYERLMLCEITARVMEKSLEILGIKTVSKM
# [2] = target: T2, BmArgRS (Bombyx mori, UniProt A0A8R1WK71, K475A)
# T2 construct: gene 101737924; apparently full length (catalytic core 216-481)
# T2 sequence (A0A8R1WK71 1-683 K475A): T1 sequence (A0A8R1WK71 1-683 V468A) with A468V, K475A
# [3] = target: T3, BmArgRS (Bombyx mori, UniProt A0A8R1WK71)
# T3 construct: gene 101737924; apparently full length (catalytic core 216-481)
# T3 sequence (A0A8R1WK71 1-683): T1 sequence (A0A8R1WK71 1-683 V468A) with A468V
# From the text: bio-layer interferometry, immobilised protein on BmArgRS
compound,measurement,setting,value
C=CC[C@H]1OC(=O)CCNC(=O)[C@H](C)N(C)C(=O)[C@H](C(C)C)N(C)C(=O)[C@H]([C@@H](C)CC)NC(=O)[C@@H]2CCCN2C1=O [Destruxin A] (cyclo(I[NMeV][NMeA][βAla][dLac(3-vinyl)]P)),Kd,[1],53 µM
same,Kd,[2],5.71 µM
same,Kd,[3],55.3 µM
